No end group written: not given here. *: point of attachment. FITC = O=C1OC2(c3ccc(O)cc3Oc3cc(O)ccc32)c2ccc(NC(=S)*)cc21
How the values were obtained:
[1] = test system: erythroid cells undergoing maturation; experiment: Uptake of Alexa488-labeled transferrin by erythroid cells during maturation; type: cell-based; details: 1 mg/ml in complete media, 0-24 hours, 37 or 4 degrees; days M1, M4, M5, M6
Description: In this example, transferrin receptor (CD71; also referred to herein as TRF) was evaluated for internalization into erythroid cells undergoing maturation. Briefly, wild-type CD34+ cells were differentiated as described herein. Samples of about 0.5×10^6 cells were taken on days M1, M4, M5, and M6 of maturation. […] The cells were incubated with the TRF-Alexa488 at a concentration of 1 mg/ml in complete media for 0-24 hours at 37 degrees or 4 degrees as indicated in FIG. 2.

erythroid cells = experiment: Uptake of labelled transferrin receptor-binding peptide into erythroid cells, fluorescence microscopy; type: cell-based; details: added at day M2, about 1 mg/ml, 72 hours, 37 degrees
Description: Uptake of a transferrin-binding peptide was also tested. Wild-type CD34+ cells were differentiated as described herein. At day M2 of maturation/differentiation, FITC-LC-HAIYPRH (a fluorescently labelled peptide that binds the transferrin receptor) was added to a culture of about 0.5×10^6 cells at about 1 mg/ml. The labeled peptide was obtained from Anapsec. The cells were cultured in the presence of the labeled peptide for 72 hours at 37 degrees. Internalization of the FITC-LC-HAIYPRH labeled polypeptide by erythroid cells was confirmed by fluorescence microscopy.

TFR-Alexa488: Alexa488-labeled transferrin obtained from Thermo Fisher Scientific (#T13342)
Transferrin internalization [1]: active throughout the maturation phase

FITC-LC-HAIYPRH: a fluorescently labelled peptide that binds the transferrin receptor, obtained from Anapsec ({FITC-LC}-HAIYPRH)
Internalization of labeled polypeptide by erythroid cells (erythroid cells): confirmed

From US20190062788A1, “LIPID NANOPARTICLE METHODS AND COMPOSITIONS FOR PRODUCING ENGINEERED ERYTHROID CELLS” (RUBIUS THERAPEUTICS, INC., priority 2017, published 2019)
